Results on 13 compounds are retold here after PubChem BioAssay (NCI).

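How tested: cells in 96-well plates exposed to compound for 48 hours at five concentrations. Definition used: TGI = concentration required for complete inhibition of growth.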

Some test systems named below: HCC-2998 colon; MALME-3M melanoma; MCF7 breast; NCI-H226 lung; OVCAR-3 ovarian; OVCAR-4 ovarian; OVCAR-5 ovarian; RXF 393 renal; SF-539 CNS; SK-MEL-28 melanoma; SW-620 colon; A549 NSCLC.
What all share (experiment): NCI anticancer screen, dose series, 48 h

`COc1ccc(C2=C(N)c3c(OC)cccc3C2=O)cc1`: the TGI in the experiment with HCC-2998 colon, in the experiment on MALME-3M melanoma, with MCF7 breast, with NCI-H226 lung, in the experiment with OVCAR-3 ovarian and in the experiment with OVCAR-4 ovarian was more than 100 µM each time. For the same compound, the TGI in the experiment on OVCAR-5 ovarian is more than 100 µM; in the experiment with RXF 393 renal it was 31.5 µM; with SF-539 CNS it was 41.3 µM; with SK-MEL-28 melanoma it was more than 100 µM; in the experiment with SW-620 colon, more than 100 µM.

For the compound `O=[N+]([O-])c1ccc2[nH]ncc2c1Cl`, the TGI was more than 100 µM with A549 NSCLC; more than 100 µM in the experiment with HCC-2998 colon; more than 100 µM in the experiment on MCF7 breast; more than 100 µM with NCI-H226 lung; more than 100 µM in the experiment with OVCAR-3 ovarian; 85.5 µM with OVCAR-4 ovarian. Moreover, the TGI in the experiment with OVCAR-5 ovarian was 62.5 µM; in the experiment with RXF 393 renal it was more than 100 µM; in the experiment on SF-539 CNS, more than 100 µM; in the experiment on SK-MEL-28 melanoma it was more than 100 µM; in the experiment on SW-620 colon, more than 100 µM.

Take `COC(=O)c1ccccc1/C=C1\Cc2cc(C)cc(C)c2C1=O`: the TGI in the experiment on A549 NSCLC, in the experiment with HCC-2998 colon, with MALME-3M melanoma, in the experiment on MCF7 breast, in the experiment with NCI-H226 lung and in the experiment on OVCAR-3 ovarian was more than 100 µM throughout. The TGI in the experiment on OVCAR-5 ovarian, in the experiment with RXF 393 renal, with SF-539 CNS, in the experiment with SK-MEL-28 melanoma and with SW-620 colon was more than 100 µM in each case.

As to `O=C1CCC2CCC1C2` (centres undefined), the TGI with A549 NSCLC, in the experiment with HCC-2998 colon, in the experiment on MALME-3M melanoma, in the experiment with MCF7 breast, in the experiment on NCI-H226 lung and with OVCAR-3 ovarian was more than 100 µM in each case. For the same compound, the TGI with OVCAR-4 ovarian, in the experiment on OVCAR-5 ovarian, with RXF 393 renal, in the experiment on SF-539 CNS and in the experiment on SK-MEL-28 melanoma was more than 100 µM throughout.

In the case of `COc1cc(C2c3cc4c(cc3OC(Nc3ccccc3)C2C)OCO4)cc(OC)c1OC` (centres undefined), the TGI is more than 100 µM in the experiment on A549 NSCLC; more than 26.6 µM with HCC-2998 colon; more than 100 µM in the experiment on MALME-3M melanoma; more than 100 µM in the experiment on MCF7 breast; 12.8 µM with NCI-H226 lung; more than 100 µM in the experiment on OVCAR-4 ovarian. For the same compound, the TGI in the experiment with OVCAR-5 ovarian was more than 100 µM; in the experiment with RXF 393 renal, more than 100 µM; in the experiment on SF-539 CNS, 0.697 µM; with SK-MEL-28 melanoma, more than 100 µM; in the experiment on SW-620 colon it was more than 100 µM.

Take `Cc1cccc(C)c1NC(=S)NC=C(C(N)=O)C(N)=O`: the TGI in the experiment on A549 NSCLC, in the experiment with HCC-2998 colon, in the experiment on MCF7 breast, in the experiment with NCI-H226 lung, in the experiment with OVCAR-3 ovarian and in the experiment on OVCAR-4 ovarian was more than 100 µM each time. In addition, the TGI with OVCAR-5 ovarian, in the experiment on RXF 393 renal, in the experiment with SF-539 CNS, with SK-MEL-28 melanoma and with SW-620 colon was more than 100 µM each time.

As to `CCOC(=O)[C@@H]1ON2O[C@H](OC3CCCC3(c3ccccc3)c3ccccc3)C[C@H]3OC(=O)[C@@H]1C32` (some centres undefined), the TGI is 76.6 µM with A549 NSCLC; more than 100 µM in the experiment with HCC-2998 colon; 91.4 µM in the experiment with MCF7 breast; more than 100 µM in the experiment with NCI-H226 lung; more than 100 µM in the experiment with OVCAR-3 ovarian; more than 100 µM with OVCAR-5 ovarian. Moreover, the values for the TGI with RXF 393 renal, in the experiment with SF-539 CNS and with SW-620 colon were 36.5 µM, more than 100 µM and more than 100 µM, respectively.

`O=c1oc2ccccc2nc1/C=C(\O)c1ccc([N+](=O)[O-])cc1`: the TGI in the experiment on A549 NSCLC, in the experiment on HCC-2998 colon, with MALME-3M melanoma, with MCF7 breast, in the experiment with NCI-H226 lung and with OVCAR-3 ovarian was more than 100 µM throughout. Moreover, the TGI in the experiment on OVCAR-4 ovarian, with OVCAR-5 ovarian, with RXF 393 renal and in the experiment on SF-539 CNS was more than 100 µM each time.

Turning to `O=C(C[n+]1ccccc1)N=N/C(C(=O)Nc1c(Cl)c(O)c2ccccc2c1O)=C1/C(=O)Oc2cc(O)ccc2C1=O`, the TGI was found to be 11 µM with A549 NSCLC; 12.8 µM in the experiment on HCC-2998 colon; 15.5 µM with MCF7 breast; 25.8 µM in the experiment on NCI-H226 lung; 13.2 µM in the experiment with OVCAR-3 ovarian; 8.84 µM in the experiment on OVCAR-4 ovarian. Further, the TGI was found to be 25.5 µM in the experiment on OVCAR-5 ovarian, 21.7 µM in the experiment with RXF 393 renal, 16 µM in the experiment on SF-539 CNS and 20.6 µM with SW-620 colon.

In the case of `Cn1c(NS(=O)(=O)c2ccccc2)nc2ccccc21`, the TGI in the experiment on A549 NSCLC, in the experiment with HCC-2998 colon, with MALME-3M melanoma, in the experiment with MCF7 breast, in the experiment with NCI-H226 lung and in the experiment with OVCAR-4 ovarian was more than 100 µM in each case. Also, the TGI with OVCAR-5 ovarian, with RXF 393 renal, in the experiment on SF-539 CNS, with SK-MEL-28 melanoma and in the experiment on SW-620 colon was more than 100 µM each time.

In the case of `COC(=O)C1=Cc2cc(OC)c(O)cc2[C@@H](c2ccc(O)c(OC)c2)[C@@H]1C(=O)OC`, the TGI with A549 NSCLC, in the experiment with HCC-2998 colon, in the experiment with MALME-3M melanoma, in the experiment with MCF7 breast, with NCI-H226 lung and in the experiment with OVCAR-3 ovarian was more than 100 µM in each case. Moreover, the TGI with OVCAR-5 ovarian, in the experiment with RXF 393 renal, in the experiment on SF-539 CNS, with SK-MEL-28 melanoma and in the experiment on SW-620 colon was more than 100 µM each time.

For `O=C(CCc1ccc(O)cc1)NCCc1cccc(OCc2ccccc2)c1`, the TGI in the experiment on A549 NSCLC is more than 100 µM; with HCC-2998 colon, 41.3 µM; in the experiment with MALME-3M melanoma, 79.6 µM; in the experiment on MCF7 breast, 86.6 µM; in the experiment on NCI-H226 lung, 97.8 µM; in the experiment with OVCAR-3 ovarian, 35.1 µM. Also, the TGI in the experiment with OVCAR-4 ovarian was more than 100 µM; with OVCAR-5 ovarian, more than 100 µM; in the experiment on RXF 393 renal it was more than 100 µM; in the experiment with SF-539 CNS, 31 µM; in the experiment with SK-MEL-28 melanoma it was 63.2 µM.

As to `c1ccc(Nc2nnc(Cn3ccc4ccccc43)s2)cc1`, the TGI with A549 NSCLC, with HCC-2998 colon, with MCF7 breast, in the experiment with NCI-H226 lung, in the experiment with OVCAR-3 ovarian and with OVCAR-4 ovarian was more than 100 µM each time. The TGI in the experiment with OVCAR-5 ovarian, with RXF 393 renal, in the experiment with SF-539 CNS, in the experiment with SK-MEL-28 melanoma and with SW-620 colon was more than 100 µM in each case.
